Test [1] has as its system ATF4 in H929 Multiple Myeloma cells. The test can be described thus: H929 ATF4 ELISA assay. The test is classed as cell-based. Conditions: four hours, fold stimulation of cellular ATF4 relative to vehicle treated control. How it is done:
H929 multiple myeloma cells (catalog #CRL-9068) were obtained from the American Type Culture Collection (ATTC, Manassas, VA). Briefly, cells were grown in RPMI-1640 medium supplemented with 20% heat-inactivated fetal bovine serum (catalog #A3840002, ThermoFisher Scientific, Waltham, MA), 1% Penicillin/Streptomycin/L-Glutamine (catalog #10378016, ThermoFisher Scientific, Waltham, MA), and 0.05 mM 2-mercaptoethanol (catalog #21985-023, ThermoFisher Scientific, Waltham, MA) at 37° C., 5% CO2, and 95% humidity. Cells were expanded until reaching one million five hundred thousand cells per mL at which time they were sub-cultured or harvested for assay use. One million five hundred thousand cells per well in 1 mL complete growth medium were dispensed into 12-well plates and incubated overnight. A serial dilution of test compound was added, and cells were incubated at 37° C., 5% CO2, and 95% for four hours. Cells were lysed then ATF4 levels were measured using an ELISA assay (Proteintech, Rosemont, IL). Absorbance is measured at 450 nm and 544 nM using a Synergy2 or equivalent reader (Biotek, Winooski VT). Data were analyzed using PRISM software (Graphpad, San Diego, CA) to calculate fold stimulation of cellular ATF4 relative to vehicle treated control.
In general terms: An ELISA detects its analyte on a solid surface through an enzyme-linked reagent.

Test [2] deals with ATF4 in Thapsigargin stimulated CCRF-CEM cells. The test can be described thus: CCRF-CEM TG ATF4 ELISA, phenotypic assay for cellular inhibition of PERK preactivated by thapsigargin. The test is classed as cell-based. Particulars: Homo sapiens, 3 h, compound three hours then 1 μM thapsigargin for an additional hour. How it is done: CCRF-CEM TG ATF4 ELISA, a Phenotypic Assay for Cellular Inhibition of PERK Preactivated by Thapsigargin (TG)
CCRF-CEM leukemia cells (catalog #CCL-116) were obtained from the American Type Culture Collection (ATTC, Manassas, VA). Briefly, cells were grown in RPMI-1640 medium supplemented with 10% heat-inactivated fetal bovine serum (Invitrogen, Carlsbad, CA) and 1% Penicillin/Streptomycin/L-Glutamine at 37° C., 5% CO2, and 95% humidity. Cells were expanded until reaching one million cells per mL at which time they were subcultured or harvested for assay use. One million five hundred thousand cells per well in 1 mL complete growth medium were dispensed into 12-well plates and incubated overnight. A serial dilution of test compound was added and cells were incubated at 37° C., 5% CO2, and 95% for three hours, then 1 μM thapsigargin was added and cells were incubated for an additional hour at 37° C., 5% CO2, and 95%. Cells were lysed then ATF4 levels were measured using an ELISA assay (Proteintech, Rosemont, IL). Absorbance was measured at 450 nm and 544 nM using a Synergy2 or equivalent reader (Biotek, Winooski VT). Data was analyzed using PRISM software (Graphpad, San Diego, CA) to calculate IC50 values.

The target in test [3] is T1, PERK kinase (Homo sapiens, UniProt Q9NZJ5, A704S).
T1 construct: GST (with thrombin site LVPRGS); purchased Beryllium
Description: Biochemical assay for PERK (coupled pyruvate kinase/lactate dehydrogenase assay). Particulars: 10 nM PERK, 1 mM ATP, reaction rate 2-3 h time frame, 30° C. As to the method:
Biochemical Assay for PERK
Activity of PERK kinase was determined spectroscopically using a coupled pyruvate kinase/lactate dehydrogenase assay that continuously monitors the ATP hydrolysis-dependent oxidation of NADH (Science, 2000, 289, 1938-1942). Assays were conducted in 384-well plates (100 μL final volume) using 10 nM PERK (from Beryllium), 0.25 mg/mL Myelin Basic Protein substrate, 1.5 units pyruvate kinase, 2.1 units lactate dehydrogenase, 1 mM phosphoenol pyruvate, 0.28 mM NADH and 1 mM ATP in assay buffer (100 mM Tris, pH 7.5, 15 mM MgCl2, 0.5 mM DTT, 0.004% (w/v) BSA, and 0.004% Triton X-100). Inhibition of PERK was measured by adding serial diluted test compound (final assay concentration of 1% DMSO). A decrease in absorption at 340 nm was monitored continuously for 6 hours at 30° C. on a multi-mode microplate reader (BioTek). The reaction rate was calculated using the 2-3 h time frame. The reaction rate at each concentration of compound was converted to percent inhibition using controls (i.e., reaction with no test compound and reaction with a known inhibitor) and IC50 values were calculated using software routines in Prism (GraphPad software).

Test [4] deals with T2, GCN2 kinase (Homo sapiens, UniProt Q9P2K8).
T2 construct: G556E with a; purchased Carna Biosciences
The test can be described thus: Biochemical assay for GCN2 (TR-FRET kinase activity assay). Particulars: 2 nM GCN2, 1 mM ATP, 3-hour incubation. How it is done:
Biochemical assay for GCN2
Activity of GCN2 kinase was determined using a TR-FRET kinase activity assay (e.g., Analytical Biochemistry, 2006, 356, 108-116). Assays were conducted in 384-well plates (13 μL assay volume) using 2 nM GCN2 (Carna Biosciences), 130 nM GFP-EIf2α (Invitrogen), 0.2 mg/mL E. coli tRNA (sigma) and 1 mM ATP in kinase buffer (Invitrogen). Inhibition of GCN2 was measured by adding serial diluted test compound (final assay concentration of 0.5% DMSO) followed by a 3-hour incubation. Tb-peIF2α (pSer52) antibody (Invitrogen) (2 nM final assay concentration) in kinase buffer containing EDTA (final assay concentration of 20 mM) was added. After a 60 min incubation at room temperature, TR-FRET was monitored using an excitation wavelength of 340 nm and emission wavelengths of 490 nm and 520 nm. The emission ratio (520/490) at each compound concentration of was converted to percent inhibition using controls (i.e., reaction with no test compound and reaction with a known inhibitor) and IC50 values were calculated by fitting a four-parameter sigmoidal curve to the data using Prism (GraphPad software).
On the technique in general: Time-resolved FRET reads energy transfer from a long-lived donor to a nearby acceptor.

The subject of test [5] is ASNase treated CCRF-CEM cells. The test can be described thus: CCRF-CEM ASNase cell proliferation assay, phenotypic assay for cellular inhibition of GCN2. Conditions: Homo sapiens, 1 mU/mL ASNase, 72 h, resazurin. The test is classed as cell-based. As to the method: CCRF-CEM ASNase Cell Proliferation Assay, a Phenotypic Assay for Cellular Inhibition of GCN2.
CCRF-CEM leukemia cells (catalog #CCL-116) were obtained from the American Type Culture Collect (ATTC, Manassas, VA). Cells were grown in RPMI-1640 medium supplemented with 10% heat-inactivated fetal bovine serum (Invitrogen, Carlsbad, CA) and 1% Penicillin/Streptomycin/L-Glutamine at 37° C., 5% CO2, and 95% humidity. Cells were expanded until reaching one million cells per mL at which time they are subcultured or harvested for assay use. Ten thousand cells per well in 200 μL RPMI-1640 supplemented with 10% heat-inactivated fetal bovine serum and 1% Penicillin/Streptomycin were dispensed into a 96-well black clear bottom plate. A serial dilution of test compound and 1 mU/mL ASNase was added in triplicate and plates were incubated for 72 h at 37° C., 5% CO2, and 95% humidity. At the end of the incubation, 40 μL of a […] solution of resazurin (Sigma, St. Louis, MO) in PBS was added to each well of the plate and plates were incubated for an additional 6 h at 37° C., 5% CO2, and 95% humidity. Plates were read on a Synergy2 or equivalent reader (Biotek, Winooski VT) using an excitation of 540 nm and an emission of 600 nm. Data was analyzed using GraphPad Prism software (GraphPad, San Diego, CA) to calculate IC50 values.

SMILES strings stand for the structures.

Broadly, the IC50 is the concentration at which inhibition is half-maximal.

T1 sequence (Q9NZJ5 with tags, fused parts or gaps A704S): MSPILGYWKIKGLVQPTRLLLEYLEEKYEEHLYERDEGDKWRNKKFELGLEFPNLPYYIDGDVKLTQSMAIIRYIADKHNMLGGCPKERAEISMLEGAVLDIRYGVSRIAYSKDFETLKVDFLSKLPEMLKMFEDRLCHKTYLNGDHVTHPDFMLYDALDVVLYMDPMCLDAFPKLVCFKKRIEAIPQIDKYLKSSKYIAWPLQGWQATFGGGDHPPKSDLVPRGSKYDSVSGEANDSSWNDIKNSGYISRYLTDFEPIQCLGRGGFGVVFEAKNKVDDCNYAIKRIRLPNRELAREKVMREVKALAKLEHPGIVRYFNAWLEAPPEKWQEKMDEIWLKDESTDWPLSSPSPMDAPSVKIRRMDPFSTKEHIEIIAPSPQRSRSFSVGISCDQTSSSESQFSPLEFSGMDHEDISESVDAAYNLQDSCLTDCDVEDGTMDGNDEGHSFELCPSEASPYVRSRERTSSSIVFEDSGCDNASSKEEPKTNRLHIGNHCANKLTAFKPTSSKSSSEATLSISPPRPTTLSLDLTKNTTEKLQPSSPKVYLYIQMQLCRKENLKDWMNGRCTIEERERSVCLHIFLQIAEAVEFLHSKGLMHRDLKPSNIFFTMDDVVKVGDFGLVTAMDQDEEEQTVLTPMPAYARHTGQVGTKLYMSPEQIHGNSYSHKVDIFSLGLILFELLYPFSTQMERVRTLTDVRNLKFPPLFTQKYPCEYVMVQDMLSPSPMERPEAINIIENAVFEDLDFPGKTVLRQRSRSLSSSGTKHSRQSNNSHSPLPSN

Consider `Nc1nccn2c(C3CCC3)nc(-c3cccc(NS(=O)(=O)c4cc(Cl)cc(CO)c4Cl)c3F)c12` [Example 17], for which the “H929 NS ATF4 ELISA” value in test [1] is “+++ (an ATF4 stim greater than 10-fold and less than or equal to 20-fold)”. In addition, the IC50 in test [2] is 100 to 500 nM; in test [3], no more than 100 nM; in test [4], no more than 100 nM; in test [5], 100 to 500 nM.

Regarding `NC(=O)c1cc(-c2cccc(NS(=O)(=O)c3cc(Cl)cc(CO)c3Cl)c2F)c2c(N)ncnn12` [Example 18], in test [1], the “H929 NS ATF4 ELISA” value was “++ (an ATF4 stim greater than 5-fold and less than or equal to 10-fold)”. Further, the IC50 is 500 to 1000 nM in test [2], no more than 100 nM in test [3], no more than 100 nM in test [4] and 100 to 500 nM in test [5].

Turning to `Nc1nccn2c(-c3cn[nH]c3)nc(-c3cccc(NS(=O)(=O)c4cc(Cl)cc(CO)c4Cl)c3F)c12` [Example 19], the “H929 NS ATF4 ELISA” value in test [1] was “++ (an ATF4 stim greater than 5-fold and less than or equal to 10-fold)”. Besides, the IC50 in test [2] was 500 to 1000 nM; in test [3], no more than 100 nM; in test [4] it was no more than 100 nM; in test [5] it was 100 to 500 nM.

For `Cn1cc(-c2nc(-c3cccc(NS(=O)(=O)c4cc(Cl)cc(CO)c4Cl)c3F)c3c(N)nccn23)cn1` [Example 20], the “H929 NS ATF4 ELISA” value in test [1] was “++ (an ATF4 stim greater than 5-fold and less than or equal to 10-fold)”. Further, the IC50 in test [2], in test [3], in test [4] and in test [5] was no more than 100 nM each time.

Regarding `CSc1nc(-c2cccc(NS(=O)(=O)c3cc(Cl)cc(CO)c3Cl)c2F)c2c(N)nccn12` [Example 21], the “H929 NS ATF4 ELISA” value in test [1] is “+++ (an ATF4 stim greater than 10-fold and less than or equal to 20-fold)”. Moreover, the IC50 in test [2] is 100 to 500 nM; in test [3], no more than 100 nM; in test [4], no more than 100 nM; in test [5], 100 to 500 nM.

For `CNC(=O)c1nc(-c2cccc(NS(=O)(=O)c3cc(Cl)cc(CO)c3Cl)c2F)c2c(N)nccn12` [Example 22], the “H929 NS ATF4 ELISA” value in test [1] is given as “++++ (an ATF4 stim greater than 20-fold)”. The IC50 was 100 to 500 nM in test [2], no more than 100 nM in test [3], no more than 100 nM in test [4] and 100 to 500 nM in test [5].

For the compound `CNc1nc(-c2cccc(NS(=O)(=O)c3cc(Cl)cc(CO)c3Cl)c2F)c2c(N)nccn12` [Example 26], the “H929 NS ATF4 ELISA” value in test [1] is “++ (an ATF4 stim greater than 5-fold and less than or equal to 10-fold)”. Besides, the IC50 was 100 to 500 nM in test [2], no more than 100 nM in test [3], no more than 100 nM in test [4] and 100 to 500 nM in test [5].

`Cn1cc(-c2cccc(NS(=O)(=O)c3cc(F)c(Br)cc3F)c2F)c2c(N)ncnc21` [Example 38]: the “H929 NS ATF4 ELISA” value in test [1] is recorded as “+ (an ATF4 stim less than or equal to 5-fold)”. The IC50 in test [2] was 100 to 500 nM; in test [3], no more than 100 nM; in test [4], 1000 to 10000 nM; in test [5], 1000 to 10000 nM.

`COc1ncc(Cl)cc1S(=O)(=O)Nc1cc(F)c(F)c(-c2cn(C)c3ncnc(N)c23)c1` [Example 43]: in test [1], the “H929 NS ATF4 ELISA” value is listed as “+ (an ATF4 stim less than or equal to 5-fold)”. Also, the IC50 in test [2] is 1000 to 10000 nM; in test [3], no more than 100 nM; in test [4], 1000 to 10000 nM; in test [5], 1000 to 10000 nM.

In the case of `Cn1cc(-c2cccc(NS(=O)(=O)c3cc(Cl)cc(/C=N\O)c3Cl)c2F)c2c(N)ncnc21` [Example 52, (Z)—N-(3-(4-amino-7-methyl-7H-pyrrolo[2,3-d]pyrimidin-5-yl)-2-fluorophenyl)-2,5-dichloro-3-((hydroxyimino)methyl)benzenesulfonamide], in test [1], the “H929 NS ATF4 ELISA” value was “++++ (an ATF4 stim greater than 20-fold)”. The IC50 in test [2] was 100 to 500 nM; in test [3], no more than 100 nM; in test [4] it was 500 to 1000 nM; in test [5], 1000 to 10000 nM.
